Test results from patent EP0306846A2, “Synergistic combination comprising a phosphodiesterase inhibitor and a thromboxane-A2 antagonist, and its use or preparation” (Dr. Karl Thomae GmbH, priority 1987, dated 1989).

Tests used:
[1] = system: Plättchenaggregation im Gesamtblut; experiment: collagen-induced platelet aggregation in whole blood of rats after administration of the substances (ex vivo); set-up: species or system Ratten; settings: rat, versus vehicle controls
Description: (§1) Ratten mit einem durchschnittlichen Körpergewicht von 250 bis 300 g wurden mit 60 mg/kg Pentobarbital narkotisiert. Aus der abdominalen Arterie wurde 4,5 ml Blut entnommen und in 0,5 ml Zitrat (3,8 %) gegeben. Das Blut von 3 Ratten wurde jeweils gepoolt und Proben hiervon, die Lösungsmittel, die Einzelsubstanzen oder die zu untersuchende Kombination enthielten, wurden 10 Minuten lang rotiert. Von diesen Proben wurden jeweils 200 µl in Aggregometer-Küvetten gegeben und 5 Minuten lang bei 37°C gerührt. Anschließend wurden 10 µl Collagenlösung (Endkonzentration: 7 µg/ml) zugegeben und zu verschiedenen Zeiten jeweils 10 µl Blut entnommen, welches anschließend mit Formaldehyd fixiert wurde. In diesen Proben wurden die nicht aggregierten Plättchen mit einem Ultra-Flo 100 (Becton-Dickinson) bestimmt. Die nachfolgende Tabelle enthält die gefundenen Werte:
Desweiteren wurde die synergistische Wirkung auf die Plättchenaggregation im Gesamtblut für die Kombination, bestehen aus Pimobendan (Substanz C) und Substanz B in Vergleich zu den Einzelverbindungen wie folgt untersucht: Ratten mit einem durchschnittlichen Körpergewicht von 250 bis 300 g Körpergewicht wurden 5 mg/kg Substanz C und 0,5 mg/kg Substanz B oder die Kombination im Vergleich zu Kontrollen, welche nur das Vehikel appliziert bekamen, gegeben. […]

[2] = system: Plättchenaggregation im Gesamtblut; experiment: collagen-induced platelet aggregation in pooled rat whole blood, substances added in vitro; format: cell-based, Ratten; settings: collagen 7 µg/ml, read-out: % Hemmung
Description: as §1, with “Werte: […]” for “Werte:”

[3] = in combination with Dipyridamol; J. Clin. Invest. 75, 1591-1599 (1985); cited from earlier work

COc1ccc(-c2nc3ccc(C4=NNC(=O)CC4C)cc3[nH]2)cc1 (stereo not drawn) [Substanz C, 2-(4-Methoxy-phenyl)-5(6)-(5-methyl-3-oxo-4,5-dihydro-2H-6-pyridazinyl)-benzimidazol, reference compound]
% Hemmung ([1]; dose 5,0 mg/kg): -1%

CCOc1nc(N2CCNCC2)nc(N2CC[S+]([O-])CC2)c1[N+](=O)[O-] [Substanz A, 6-Äthoxy-5-nitro-4-(1-oxidothiomorpholino)-2-piperazino-pyrimidin]
inhibition at 0.03 µM ([2]; 0,03 µMol/l): 4%

O=C(O)c1ccc(OCCn2ccnc2)cc1 [Dazoxiben, 4-[2-(1H-Imidazol-1-yl)-ethoxy]benzoesäure]
Einfluß auf die antithrombotische Wirkung des PDE-Hemmers [3]: keinen verbessernden Einfluß

O=C(O)CCCc1ccc2c(c1)CC(NS(=O)(=O)c1ccc(Cl)cc1)C2 (stereo not drawn) [Substanz B, 4-[2-p-Chlorbenzolsulfonamido-indan-5-yl]-buttersäure]
% Hemmung ([1]; dose 0,5 mg/kg): 59%
inhibition at 0.1 µM ([2]; 0,10 µMol/l): 3%
inhibition at 0.3 µM ([2]; 0,30 µMol/l): 19%
